# Measured values: ChEMBL document CHEMBL3399992, “Identification of anti-HIV agents with a novel benzo[4,5]isothiazolo[2,3-a]pyrimidine scaffold” (Bioorg Med Chem, 2015)
# Calls of active or inactive are those of the source. The calls are words filed in the database; no cut-off is given here.
# Tests used:
# [1] = test system: Human immunodeficiency virus; test: Antiviral activity against HIV 3B assessed as inhibition of infection of NCK45-beta-Gal cells after 48 hrs; format: functional, organism-based; settings: Human immunodeficiency virus 1, 3B
# [2] = Cytotoxicity against human NCK45 cells at 10 uM; format: cell-based; settings: nck45, 10 µM
# [3] = test system: Human immunodeficiency virus; test: Antiviral activity against HIV 3B assessed as prevention of early stage infection of NCK45-beta-Gal cells up to 48 hrs; format: functional, organism-based
SMILES,EC50 [1],Activity [2],inhibition [3]
c1cc2c(cc1-c1ccc3c(c1)SN1CCCN=C31)OCO2,160 nM,Non-toxic,–
FC(F)(F)c1ccc2c(c1)C1=NCCCN1S2,1780 nM,Non-toxic,–
CC(=O)Nc1ccc2c(c1)SN1CCCN=C21,> 10000 nM,Non-toxic,–
c1ccc2c3c(ccc2c1)C1=NCCCN1S3,> 1000 nM,Toxic,–
c1ccc(-c2ccc3c(c2)SN2CCCN=C32)nc1,340 nM,Non-toxic,–
N=C1Sc2ccccc2C2=NCCCN12,300 nM,–,Active
COc1ccc2c(c1)SN1CCCN=C21,580 nM,Non-toxic,–
Cc1ccc2c(c1)C1=NCCCN1S2,850 nM,Non-toxic,–
c1cnn(-c2ccc3c(c2)SN2CCCN=C32)c1,410 nM,Non-toxic,–
c1cn(-c2ccc3c(c2)SN2CCCN=C32)nn1,420 nM,Non-toxic,–
Brc1ccc2c(c1)C1=NCCCN1S2,1010 nM,Non-toxic,–
COc1ccc2c(c1)C1=NCCCN1S2,2110 nM,Non-toxic,–
Brc1ccc2c(c1)SN1CCCN=C21,220 nM,Non-toxic,–
c1ccc(-c2ccc3c(c2)C2=NCCCN2S3)cc1,560 nM,Non-toxic,–
c1cc(-c2ccc3c(c2)SN2CCCN=C32)cs1,80 nM,Non-toxic,–
c1cncc(-c2ccc3c(c2)SN2CCCN=C32)c1,560 nM,Non-toxic,–
Brc1cccc2c1SN1CCCN=C21,> 10000 nM,Non-toxic,–
c1coc(-c2ccc3c(c2)SN2CCCN=C32)c1,50 nM,Non-toxic,Active
c1ccc2c(c1)SN1CCCN=C21,290 nM,Non-toxic,Active
FC(F)(F)c1ccc2c(c1)SN1CCCN=C21,1280 nM,Non-toxic,–

# Now from value to compound, other results behind:
EC50 [1],SMILES,Activity [2],inhibition [3]
120 nM,O=[N+]([O-])c1cccc(-c2ccc3c(c2)SN2CCCN=C32)c1,Non-toxic,–
1280 nM,Oc1ccc(-c2ccc3c(c2)SN2CCCN=C32)cc1,Non-toxic,–
1790 nM,O=[N+]([O-])c1ccc2c(c1)SN1CCCN=C21,Non-toxic,–
560 nM,c1cc(-c2ccc3c(c2)SN2CCCN=C32)ccn1,Non-toxic,–
80 nM,O=[N+]([O-])c1ccc(-c2ccc3c(c2)SN2CCCN=C32)cc1,Non-toxic,–
1470 nM,Oc1cccc(-c2ccc3c(c2)SN2CCCN=C32)c1,Non-toxic,–
100 nM,COc1cccc(-c2ccc3c(c2)SN2CCCN=C32)c1,Non-toxic,–
50 nM,COC(=O)c1cccc(-c2ccc3c(c2)SN2CCCN=C32)c1,Non-toxic,Active
160 nM,COC(=O)c1ccc(-c2ccc3c(c2)SN2CCCN=C32)cc1,Non-toxic,–
120 nM,c1ccc2cc(-c3ccc4c(c3)SN3CCCN=C43)ccc2c1,Non-toxic,–
90 nM,COc1ccc(-c2ccc3c(c2)SN2CCCN=C32)cc1,Toxic,–
300 nM,c1ccc(-c2ccc3c(c2)SN2CCCN=C32)cc1,Non-toxic,–
